Measured values: ChEMBL document CHEMBL4308841, “Synthesis, in vitro antiproliferative activity, and kinase inhibitory effects of pyrazole-containing diarylureas and diarylamides” (Eur J Med Chem, 2018)

What was measured:
CAKI-1 = experiment: Growth inhibition of human Caki1 cells assessed as cell growth at 100 uM incubated for 48 hrs by sulforhodamine B assay relative to control; assay type: functional; details: CAKI-1, 48 h, read-out: Activity
OVCAR-4 [1] = experiment: Growth inhibition of human OVCAR4 cells assessed as cell growth at 0.1 uM incubated for 48 hrs by sulforhodamine B assay relative to control; assay type: functional; details: OVCAR-4, 48 h, read-out: Activity
HL-60(TB) = experiment: Growth inhibition of human HL-60(TB) cells incubated for 48 hrs by sulforhodamine B assay; assay type: functional, cell-based; details: HL-60, 48 h
MDA-MB-231 = experiment: Growth inhibition of human MDA-MB-231 cells assessed as cell growth at 1 uM incubated for 48 hrs by sulforhodamine B assay relative to control; assay type: functional; details: MDA-MB-231, 48 h, read-out: Activity
NCI-H460 = experiment: Growth inhibition of human NCI-H460 cells assessed as cell growth at 0.1 uM incubated for 48 hrs by sulforhodamine B assay relative to control; assay type: functional; details: NCI-H460, 48 h, read-out: Activity
SK-MEL-2 = experiment: Growth inhibition of human SK-MEL-2 cells incubated for 48 hrs by sulforhodamine B assay; assay type: functional, cell-based; details: SK-MEL-2, 48 h
OVCAR-4 [2] = experiment: Growth inhibition of human OVCAR4 cells assessed as cell growth at 100 uM incubated for 48 hrs by sulforhodamine B assay relative to control; assay type: functional; details: OVCAR-4, 48 h, read-out: Activity
OVCAR-3 = experiment: Growth inhibition of human OVCAR3 cells assessed as cell growth at 100 uM incubated for 48 hrs by sulforhodamine B assay relative to control; assay type: functional; details: OVCAR-3, 48 h, read-out: Activity
SK-MEL-28 [3] = experiment: Growth inhibition of human SK-MEL-28 cells assessed as cell growth at 1 uM incubated for 48 hrs by sulforhodamine B assay relative to control; assay type: functional; details: SK-MEL-28, 48 h, read-out: Activity
MCF7 [4] = experiment: Growth inhibition of human MCF7 cells incubated for 48 hrs by sulforhodamine B assay; assay type: functional, cell-based; details: MCF7, 48 h
NCI-H522 = experiment: Growth inhibition of human NCI-H522 cells assessed as cell growth at 100 uM incubated for 48 hrs by sulforhodamine B assay relative to control; assay type: functional; details: NCI-H522, 48 h, read-out: Activity
A498 = experiment: Growth inhibition of human A498 cells assessed as cell growth at 1 uM incubated for 48 hrs by sulforhodamine B assay relative to control; assay type: functional; details: A498, 48 h, read-out: Activity
SW-620 = experiment: Growth inhibition of human SW620 cells assessed as cell growth at 0.1 uM incubated for 48 hrs by sulforhodamine B assay relative to control; assay type: functional; details: SW-620, 48 h, read-out: Activity
NCI-H226 = experiment: Growth inhibition of human NCI-H226 cells assessed as cell growth at 100 uM incubated for 48 hrs by sulforhodamine B assay relative to control; assay type: functional; details: NCI-H226, 48 h, read-out: Activity
IGROV-1 = experiment: Growth inhibition of human IGROV1 cells assessed as cell growth at 100 uM incubated for 48 hrs by sulforhodamine B assay relative to control; assay type: functional; details: IGROV-1, 48 h, read-out: Activity
SF-539 = experiment: Growth inhibition of human SF539 cells assessed as cell growth at 0.01 uM incubated for 48 hrs by sulforhodamine B assay relative to control; assay type: functional; details: SF-539, 48 h, read-out: Activity
UO-31 = experiment: Growth inhibition of human UO31 cells assessed as cell growth at 1 uM incubated for 48 hrs by sulforhodamine B assay relative to control; assay type: functional; details: UO-31, 48 h, read-out: Activity
SF-295 = experiment: Growth inhibition of human SF295 cells assessed as cell growth at 0.1 uM incubated for 48 hrs by sulforhodamine B assay relative to control; assay type: functional; details: SF-295, 48 h, read-out: Activity
CCRF-CEM [5] = experiment: Growth inhibition of human CCRF-CEM cells assessed as cell growth at 0.01 uM incubated for 48 hrs by sulforhodamine B assay relative to control; assay type: functional; details: read-out: Activity
RXF 393 = experiment: Growth inhibition of human RXF393 cells incubated for 48 hrs by sulforhodamine B assay; assay type: functional, cell-based; details: RXF 393, 48 h
MCF7 [6] = experiment: Growth inhibition of human MCF7 cells assessed as cell growth at 0.1 uM incubated for 48 hrs by sulforhodamine B assay relative to control; assay type: functional; details: MCF7, 48 h, read-out: Activity
M14 = experiment: Growth inhibition of human M14 cells assessed as cell growth at 1 uM incubated for 48 hrs by sulforhodamine B assay relative to control; assay type: functional; details: M14, 48 h, read-out: Activity
SK-MEL-5 = experiment: Growth inhibition of human SK-MEL-5 cells assessed as cell growth at 100 uM incubated for 48 hrs by sulforhodamine B assay relative to control; assay type: functional; details: SK-MEL-5, 48 h, read-out: Activity
CCRF-CEM [7] = experiment: Growth inhibition of human CCRF-CEM cells assessed as cell growth at 1 uM incubated for 48 hrs by sulforhodamine B assay relative to control; assay type: functional; details: read-out: Activity
SK-MEL-28 [8] = experiment: Growth inhibition of human SK-MEL-28 cells assessed as cell growth at 0.1 uM incubated for 48 hrs by sulforhodamine B assay relative to control; assay type: functional; details: SK-MEL-28, 48 h, read-out: Activity
NCI/ADR-RES = experiment: Growth inhibition of human NCI/ADR-RES cells assessed as cell growth at 0.1 uM incubated for 48 hrs by sulforhodamine B assay relative to control; assay type: functional; details: read-out: Activity
SK-OV-3 = experiment: Growth inhibition of human SKOV3 cells assessed as cell growth at 0.01 uM incubated for 48 hrs by sulforhodamine B assay relative to control; assay type: functional; details: SK-OV-3, 48 h, read-out: Activity
MOLT-4 = experiment: Growth inhibition of human MOLT4 cells assessed as cell growth at 0.1 uM incubated for 48 hrs by sulforhodamine B assay relative to control; assay type: functional; details: MOLT-4, 48 h, read-out: Activity
MDA-MB-435 [9] = experiment: Growth inhibition of human MDA-MB-435 cells assessed as cell growth at 0.1 uM incubated for 48 hrs by sulforhodamine B assay relative to control; assay type: functional; details: MDA-MB-435, 48 h, read-out: Activity
MDA-MB-435 [10] = experiment: Growth inhibition of human MDA-MB-435 cells assessed as cell growth at 1 uM incubated for 48 hrs by sulforhodamine B assay relative to control; assay type: functional; details: MDA-MB-435, 48 h, read-out: Activity
KM12 = experiment: Growth inhibition of human KM12 cells assessed as cell growth at 1 uM incubated for 48 hrs by sulforhodamine B assay relative to control; assay type: functional; details: KM12, 48 h, read-out: Activity

SMILES: O=C(Nc1cccc(-n2cc(-c3ccncc3)c(-c3cc(O)cc(Cl)c3)n2)c1)Nc1ccc(Cl)c(C(F)(F)F)c1
- growth at 100 µM (CAKI-1): -38%
- growth at 0.1 µM (OVCAR-4 [1]): 105%
- GI50 (HL-60(TB); read-out: GI50): 2.56 µM
- LC50 (HL-60(TB); read-out: LC50): > 100 µM
- TGI (HL-60(TB); read-out: TGI): 66.2 µM
- GI50 (HL-60(TB); read-out: pGI50 (converted)): 2.88 µM
- LC50 (HL-60(TB); read-out: pLC50 (converted)): > 100 µM
- TGI (HL-60(TB); read-out: pTGI (converted)): 6.61 µM
- growth at 1 µM (MDA-MB-231): 77%
- growth at 0.1 µM (NCI-H460): 102%
- GI50 (SK-MEL-2; read-out: GI50): 2.2 µM
- CC50 (SK-MEL-2; read-out: LC50 (the source's name)): 94.2 µM
- TGI (SK-MEL-2; read-out: TGI): 45.5 µM
- GI50 (SK-MEL-2; read-out: pGI50 (converted)): 2.24 µM
- CC50 (SK-MEL-2; read-out: pLC50 (the source's name) (converted)): 9.33 µM
- TGI (SK-MEL-2; read-out: pTGI (converted)): 4.57 µM
- growth at 100 µM (OVCAR-4 [2]): -10%
- growth at 100 µM (OVCAR-3): -1%
- growth at 1 µM (SK-MEL-28 [3]): 81%
- GI50 (MCF7 [4]; read-out: GI50): 2.53 µM
- LC50 (MCF7 [4]; read-out: LC50): > 100 µM
- TGI (MCF7 [4]; read-out: TGI): 85.4 µM
- GI50 (MCF7 [4]; read-out: pGI50 (converted)): 2.63 µM
- LC50 (MCF7 [4]; read-out: pLC50 (converted)): > 100 µM
- TGI (MCF7 [4]; read-out: pTGI (converted)): 8.51 µM
- growth at 100 µM (NCI-H522): -95%
- growth at 1 µM (A498): 92%
- growth at 0.1 µM (SW-620): 98%
- growth at 100 µM (NCI-H226): -38%
- growth at 100 µM (IGROV-1): -41%
- growth at 0.01 µM (SF-539): 104%
- growth at 1 µM (UO-31): 84%
- growth at 0.1 µM (SF-295): 93%
- growth at 0.01 µM (CCRF-CEM [5]): 97%
- LC50 (RXF 393): 12.9 µM
- GI50 (RXF 393; read-out: GI50): 1.42 µM
- TGI (RXF 393; read-out: TGI): 36.6 µM
- GI50 (RXF 393; read-out: pGI50 (converted)): 1.41 µM
- TGI (RXF 393; read-out: pTGI (converted)): 3.89 µM
- growth at 0.1 µM (MCF7 [6]): 91%
- growth at 1 µM (M14): 83%
- growth at 100 µM (SK-MEL-5): -97%
- growth at 1 µM (CCRF-CEM [7]): 92%
- growth at 0.1 µM (SK-MEL-28 [8]): 100%
- growth at 0.1 µM (NCI/ADR-RES): 92%
- growth at 0.01 µM (SK-OV-3): 108%
- growth at 0.1 µM (MOLT-4): 92%
- growth at 0.1 µM (MDA-MB-435 [9]): 94%
- growth at 1 µM (MDA-MB-435 [10]): 57%
- growth at 1 µM (KM12): 56%
